{
  "source": "patent US20200352947A1",
  "about": "“USE OF SEROTONERGIC DRUGS TO TREAT VIRUS-INDUCED THROMBOCYTOPENIA” (NATIONAL UNIVERSITY OF SINGAPORE, priority 2017, published 2020)",
  "key": {"[1]": {"tested_on": "JEV-infected mice", "experiment": "Platelet counts in JEV-infected mice", "assay_type": "in vivo", "settings": "10^6 pfu JEV IP, ketanserin 8 mg/kg at 1 hour post-infection, 24 hours, n=5", "method": "Platelet counts of JEV infected mice. Mice were infected with 10^6 pfu of JEV intraperitoneally and were vehicle- or ketanserin-treated (8 mg/kg) at 1 hour post-infection. At 24 hours, blood was collected and platelet counts were measured. The drop in platelet counts induced by JEV was prevented by ketanserin treatment (n=5). Mean values are presented and error bars represent the SEM. P values were determined by Student's unpaired t test; *p<0.05.\nJapanese encephalitis virus (JEV) is a flavivirus related to dengue, so the ability of ketanserin to inhibit JEV-induced thrombocytopenia was also tested. Mice were infected with 10^6 pfu of JEV IP, and were treated at 1 hour post-infection with vehicle (1% DMSO) or ketanserin (8 mg/kg). At 24 hours, blood was collected and platelet counts were measured. The reduction in platelet counts induced by JEV was inhibited by ketanserin treatment (FIG. 14)."}, "[2]": {"tested_on": "DENV2-infected IFNαβγ-KO mice", "experiment": "Platelet counts in DENV2-infected mice deficient in interferon signalling", "assay_type": "in vivo", "settings": "10^6 pfu DENV2 IP, ketanserin 8 mg/kg IP once daily, 24 and 72 hours post-infection, n=5", "method": "Platelet counts of DENV2 infected mice. Mice deficient in interferon signalling (IFNαβγ-KO) were infected via intraperitoneal route (IP) with 10^6 plaque forming units (pfu) and were given either vehicle (1% DMSO) or ketanserin 8 mg/kg […]. Blood was taken via cheek bleed 24 and 72 hours post-infection and platelet counts were measured using an automated hematology analyzer. DENV2 infection induced thrombocytopenia, but ketanserin treatment was able to prevent thrombocytopenia (n=5). Mean values are presented and error bars represent the SEM. P values were determined by Student's unpaired t test; ****P<0.0001.\nThese mice are commonly used in the study of DENV as their deficiency in interferon signaling results in sustained DENV replication [St John, A. L., et al., eLife 2, e00481 (2013)]. IFNαβγ-KO mice were infected via the intraperitoneal route (IP) with 10^6 plaque forming units (pfu) of DENV2 and were given either vehicle (1% DMSO) or ketanserin (8 mg/kg) IP once daily thereafter. Blood was taken via cheek bleed 24 and 72 hours post-infection and platelet counts were measured using an automated hematology analyzer."}},
  "data": [
    {"smiles": "O=C(c1ccc(F)cc1)C1CCN(CCn2c(=O)[nH]c3ccccc3c2=O)CC1", "note": "[ketanserin, 3-[2-[4-(4-fluorobenzoyl)piperidin-1-yl]ethyl]-1H-quinazoline-2,4-dione]", "values": [
      {"measurement": "reduction in platelet counts induced by JEV", "setting": "[1]", "value": "inhibited"},
      {"measurement": "platelet counts (DENV2-induced thrombocytopenia)", "setting": "[2]", "value": "able to maintain the initial normal platelet count"}
    ]}
  ]
}
